Marks after values point to notes of the source that are not given here.
How the values were obtained:
[1] = review of human studies; cited from earlier work
[2] = among third-generation OCs; cited from earlier work
C-reactive protein (CRP) = assay: CRP in postmenopausal women with type 2 diabetes on estrogen replacement therapy, randomized placebo-controlled trial (Example III); type: in vivo, human
[3] = tested on: SHBG, cortisol binding protein (CBP), ceruloplasmin and HDL-cholesterol; details: cited from earlier work; for estrogenic effect: in man; for androgenic activity: on the basis of a change in SHBG and HDL cholesterol levels
ceruloplasmin = details: FIG. 1 of Ruokonen and Kaar; cited from earlier work

| SMILES | androgenicity and antiestrogenic potential [1] | estrogenic effect [3] | androgenic activity [3] | further results |
| --- | --- | --- | --- | --- |
| C#C[C@]1(OC(C)=O)CC[C@H]2[C@@H]3CCC4=CC(=NO)CC[C@@H]4[C@H]3CC[C@@]21CC (mixture of isomers) [norgestimate] | minimal amounts of androgenicity and antiestrogenic potential | – | – | androgenic profile in vitro [2]: least androgenic profile |
| C[C@]12CC[C@@H]3c4ccc(O)cc4CC[C@H]3[C@@H]1CC[C@@H]2O [17 beta estradiol] | – | – | – | effect on CRP (C-reactive protein (CRP); 2 mg/d orally for six weeks): induced an increase in CRP; CRP-values, Median (C-reactive protein (CRP); 6 weeks, 2 mg/d orally, p = 0.0027 compared to pretreatment): 6.70#; CRP-values, Median (C-reactive protein (CRP); Pretreatment (baseline of the treatment group), postmenopausal women with type 2 diabetes): 4.13 |
| C#C[C@]1(O)CC[C@H]2[C@@H]3CCC4=CCCC[C@@H]4[C@H]3C(=C)C[C@@]21CC [desogestrel] | minimal amounts of androgenicity and antiestrogenic potential | no estrogenic effect | androgenic activity | androgenicity compared among the three compounds ([3]; desogestrel, levonorgestrel and lynestrenol compared): least androgenic; effect on ceruloplasmin concentration (ceruloplasmin): does not induce this effect or does so to an insufficient degree |
| C#C[C@]1(O)C=C[C@H]2[C@@H]3CCC4=CC(=O)CC[C@@H]4[C@H]3CC[C@@]21CC [gestodene] | minimal amounts of androgenicity and antiestrogenic potential | – | – | – |
| C#C[C@]1(O)CC[C@H]2[C@@H]3CCC4=CCCC[C@@H]4[C@H]3CC[C@@]21C [lynestrenol] | – | weakly estrogenic | androgenic activity | – |

From US20020110523A1, “Methods for screening or monitoring the risk of cardiovascular disease relating to sex steroid compound or composition intake and methods for screening sex steroid compound” (priority 1996, published 2002)
